For 15 molecules, inhibition results are on record in patent US10610520B2, “Heterocyclic compound” (Takeda Pharmaceutical Company Limited, priority 2016, dated 2020).

The structures appear in SMILES notation.

In the assay the target is T1, His-hMAGL (recombinant polyhistidine tagged human MAGL protein) (Homo sapiens, UniProt Q99685).
T1 construct: made in house; host or cells: E. coli BL21(DE3)
T1 sequence (Q99685 1-303): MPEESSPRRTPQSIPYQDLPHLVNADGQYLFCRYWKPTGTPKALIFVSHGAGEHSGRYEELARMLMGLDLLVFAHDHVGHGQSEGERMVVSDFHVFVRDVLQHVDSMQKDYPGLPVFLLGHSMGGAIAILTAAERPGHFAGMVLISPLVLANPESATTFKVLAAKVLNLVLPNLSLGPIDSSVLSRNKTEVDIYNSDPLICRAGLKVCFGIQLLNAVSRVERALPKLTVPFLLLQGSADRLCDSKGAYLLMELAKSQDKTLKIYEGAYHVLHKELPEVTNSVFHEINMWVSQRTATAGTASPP
Put plainly: Measurement of MAGL inhibitory activity (arachidonic acid production from 2-arachidonylglycerol, RapidFire-mass spectrometry). Format: biochemical. The conditions noted are these: MAGL inhibitory rate, test compound 10 μM, 60 min preincubation, 2-arachidonylglycerol substrate. Here is the method: The His-hMAGL obtained above was diluted with enzyme reaction buffer (10 mM Tris-HCl, pH 7.5, 1 mM EDTA, 0.025 (w/v) % Triton X-100, 0.01% Bovine serum albumin) to a concentration of 7.5 ng/mL. […] Thereafter, to each well was added 5 μL of 150 μM 2-arachidonylglycerol (Tocris Bioscience), and the mixture was incubated at room temperature for 10 min. Then, 10 μL of 2% formic acid (Wako Pure Chemical Industries, Ltd.) was added to stop the reaction. Furthermore, acetonitrile (50 μL) containing 3 μM arachidonic acid-d8 (Cayman Chemical Company) was added and the mixture was stirred.
The amount of arachidonic acid in the obtained enzyme reaction mixture was calculated by measuring by RapidFire-mass spectrometry and correcting by the amount of arachidonic acid-d8. High Throughput online solid phase extraction was performed using RapidFire 300™ system (Agilent Technologies, Inc.). Samples were loaded on SPE C4 cartridge (Agilent Technologies, Inc.) and desalted with 0.2 (v/v) % acetic acid (Wako Pure Chemical Industries, Ltd.) in ultrapure water/acetonitrile (70/30, v/v) at a flow rate of 1.5 mL/min, eluted at a flow rate of 0.5 mL/min with 0.2 (v/v) % acetic acid dissolved in acetonitrile/ultrapure water (90/10, v/v), and injected into the mass spectrometry part. The injection needle was washed with ultrapure water (500 millisecond) and acetonitrile (500 millisecond) to minimize carry-over. […] The RapidFire300 system was controlled by RapidFire UI software version 3.6 (Agilent Technologies, Inc.).
The mass spectrometry of the resultant product was performed using API4000™ triple quadrupole mass spectrometer (AB SCIEX) equipped with an electrospray ion sauce (TurboIon Spray™) in a negative selected reaction monitoring (SRM) mode. The conditions of SRM are shown below. The parameters of the instrument were optimized as follows: capillary temperature 600° C., ion spray voltage −4.5 kV, collision gas 8, curtain gas 15 psi, ion source gas 1 60 psi, ion source gas 2 60 psi. The mass spectrometer was controlled by Analyst™ software version 1.5.1 (AB SCIEX). The peak area integration was analyzed using RapidFire integrator software version 3.6 (Agilent Technologies, Inc.).
MAGL inhibitory rate (%) was calculated according to the following calculation formula. (1-(arachidonic acid production amount of test compound addition group−arachidonic acid production amount of enzyme-free group)÷(arachidonic acid production amount of test compound-free group−arachidonic acid production amount of enzyme-free group))×100

For `O=C1CCC2(CN(C(=O)c3ccc(-c4ccccc4)cc3F)C2)N1` [Example 31, 2-((3-fluorobiphenyl-4-yl)carbonyl)-2,5-diazaspiro[3.4]octan-6-one], the inhibition at 10 µM worked out at 84%. The same measure for `O=C1CCC2(CN(C(=O)c3cc4cc(C(F)(F)F)ccc4s3)C2)N1` [Example 33, 2-((5-(trifluoromethyl)-1-benzothiophen-2-yl)carbonyl)-2,5-diazaspiro[3.4]octan-6-one]: 85%.

`O=C1CCC2(CN(C(=O)N3CC(COc4ccc(F)cc4Cl)C3)C2)N1` [Example 34, 2-((3-((2-chloro-4-fluorophenoxy)methyl)azetidin-1-yl)carbonyl)-2,5-diazaspiro[3.4]octan-6-one]: the inhibition at 10 µM turned out to be 99%. As for `O=C1CCC2(CN(C(=O)c3sc4cc(Br)ccc4c3Cl)C2)N1` [Example 35, 2-((6-bromo-3-chloro-1-benzothiophen-2-yl)carbonyl)-2,5-diazaspiro[3.4]octan-6-one], the inhibition at 10 µM came to 99%. As to `O=C1CCC2(CN(C(=O)c3sc4cc(-c5ccc(F)cc5)ccc4c3Cl)C2)N1` [Example 36, 2-((3-chloro-6-(4-fluorophenyl)-1-benzothiophen-2-yl)carbonyl)-2,5-diazaspiro[3.4]octan-6-one], the inhibition at 10 µM worked out at 99%. The figure for `O=C1CCC2(CN(C(=O)c3sc4cc(-c5cccc(F)c5)ccc4c3Cl)C2)N1` [Example 37, 2-((3-chloro-6-(3-fluorophenyl)-1-benzothiophen-2-yl)carbonyl)-2,5-diazaspiro[3.4]octan-6-one] is 99%; for `O=C1CCC2(CN(C(=O)c3sc4cc(-c5ccccc5F)ccc4c3Cl)C2)N1` [Example 38, 2-((3-chloro-6-(2-fluorophenyl)-1-benzothiophen-2-yl)carbonyl)-2,5-diazaspiro[3.4]octan-6-one] it is 103%. The figure for `O=C1CCC2(CN(C(=O)c3sc4cc(-c5ccc(F)cc5F)ccc4c3Cl)C2)N1` [Example 39, 2-((3-chloro-6-(2,4-difluorophenyl)-1-benzothiophen-2-yl)carbonyl)-2,5-diazaspiro[3.4]octan-6-one] is 101%; for `O=C1CCC2(CN(C(=O)c3ccc(-c4ccc(C(F)(F)F)cc4)cc3)C2)N1` [Example 40, 2-((4′-(trifluoromethyl)biphenyl-4-yl)carbonyl)-2,5-diazaspiro[3.4]octan-6-one] it is 98%; for `COc1cc(-c2ccccc2)ccc1C(=O)N1CC2(CCC(=O)N2)C1` [Example 43, 2-((3-methoxybiphenyl-4-yl)carbonyl)-2,5-diazaspiro[3,4]octan-6-one] it is 87%. `O=C1CCC2(CN(C(=O)c3ccc(-c4ccc(C(F)(F)F)c(Cl)c4)cc3)C2)N1` [Example 44, 2-((3′-chloro-4′-(trifluoromethyl)biphenyl-4-yl)carbonyl)-2,5-diazaspiro[3.4]octan-6-one]: the inhibition at 10 µM turned out to be 100%. As to `O=C1CCC2(CN(C(=O)c3ccc(-c4ccc(C(F)(F)F)c(F)c4)cc3)C2)N1` [Example 45, 2-((3′-fluoro-4′-(trifluoromethyl)biphenyl-4-yl)carbonyl)-2,5-diazaspiro[3.4]octan-6-one], the inhibition at 10 µM worked out at 97%. The same measure for `O=C1CCC2(CN(C(=O)c3ccc(-c4ccc(C(F)(F)F)cc4F)cc3)C2)N1` [Example 46, 2-((2′-fluoro-4′-(trifluoromethyl)biphenyl-4-yl)carbonyl)-2,5-diazaspiro[3.4]octan-6-one]: 96%.

Consider `O=C1CCC2(CN(C(=O)c3ccc(-c4ccc(C(F)(F)F)cc4Cl)cc3)C2)N1` [Example 47, 2-((2′-chloro-4′-(trifluoromethyl)biphenyl-4-yl)carbonyl)-2,5-diazaspiro[3.4]octan-6-one], for which the inhibition at 10 µM worked out at 96%. On to `O=C1CCC2(CN(C(=O)c3ccc(-c4cc(C(F)(F)F)cc(C(F)(F)F)c4)cc3)C2)N1` [Example 48, 2-((3′,5′-bis(trifluoromethyl)biphenyl-4-yl)carbonyl)-2,5-diazaspiro[3.4]octan-6-one], for which the inhibition at 10 µM came to 98%.
